Data as given in patent US9371265B2, “Compositions and methods related to inhibitors of JAK kinase” (EP PHARMA, INC., priority 2012, dated 2016).

Tests used:
panel of protein kinases = assay: Protein kinase panel profiling (whole panel); type: biochemical; conditions: 10 μM EP009
Experimental: (§1) Achieving JAK3 selectivity remains a significant challenge in the development of new small molecules for the treatment of cancer and immune-derived diseases. As such, the inventors employed cell-based screening assays of small-molecule libraries based upon the chemical scaffold of the established JAK3 inhibitor NC1153 (Stepkowski et al., J Immunol. (2005), 175(7):4236-4246) EP009 (FIG. 2A) was selected as a lead compound due to improved intrinsic stability (>95% purity in various solvents at 37° C. for 24 hours; FIG. 3) and high-degree of JAK3 selectivity. To test JAK3 versus JAK2 specificity of EP009, the IL-2/JAK3-dependent Kit225, and IL-3/JAK2-dependent BaF/3 cell lines were used. Kit225 and BaF/3 cells growing in the presence of IL-2 or IL-3, respectively, were treated with ascending concentrations of EP009 for 12 hours and cellular JAK3 and JAK2 tyrosine phosphorylation levels detected by Western blot analysis (FIGS. 2B and 2C). Following densitometric analysis, EP009 was determined to dose-dependently reduce IL-2-mediated JAK3 tyrosine phosphorylation with a cellular 50% inhibitory concentration (IC50) between 10 and 20 μM (FIG. 2B). […] To globally evaluate specificity, the inhibitory activity of EP009 was measured against a panel of protein kinases distributed throughout the kinome using the scanEDGE profiling service (KINOMEscan). […]

CD30 = CD30 cell surface expression in SU-DHL-1 cells (flow cytometry); type: cell-based, human; conditions: 24 hours
Source text: FIGS. 6A-6B. EP009 treatment disrupts constitutive JAK3/STAT3 pathway activation and down-regulates CD30 cell surface expression in human ALCL cells. (A) Kit225 (lane a), SUP-M2 (lane b), Karpas299 (lane c), DEL (lane d) and SU-DHL-1 (lane e) total cell lysates were separated by 7.5% SDS-PAGE (upper panel) or were immunoprecipitated (IP) with JAK3 antibodies (lower panel) and separated on 7.5% SDS-PAGE, and then subjected to Western blot (WB) analysis with the indicated antibodies. (B) SU-DHL-1 cells were treated with vehicle (PBS; lane a) or increasing amounts of EP009 (0-40 μM; lanes b-e) for 12 hours. Cells were then lysed, clarified, and immunoprecipitated (IP) with anti-JAK3 (α-JAK3), and subjected to Western blot (WB) analysis with anti-phosphotyrosine (α-pY). […] Values represent pSTAT mean fluorescence intensity (MFI) normalized to corresponding GAPDH MFI, while error bars represent the standard deviation (n=2). Statistical significance was determined using Student's t-test. […] Cells were then analyzed by flow cytometry for CD30 expression. […]
Cells were treated in the absence or presence of the indicated concentrations of EP009 for 24 hours, and stained with FITC-labeled mouse anti-human CD30 (Millipore). Stained cells were analyzed by flow cytometry (Cytomics FC500, Beckman Coulter) and quantitated with CXP analysis software version 2.2 (Beckman Coulter) as previously described.24

[1] = target: ABL1(T315I)-phosphorylated (Homo sapiens, UniProt P00519, T315I); assay: Kinase panel: ABL1(T315I)-phosphorylated; type: biochemical; conditions: 10 μM EP009
Experimental: as §1

FAK = FAK (Homo sapiens, UniProt Q05397); assay: Kinase panel: FAK; type: biochemical; conditions: 10 μM EP009
Experimental: as §1

MET = MET (Homo sapiens, UniProt P08581); assay: Kinase panel: MET; type: biochemical; conditions: 10 μM EP009
Experimental: as §1

PLK3 = PLK3 (Homo sapiens, UniProt Q9H4B4); assay: Kinase panel: PLK3; type: biochemical; conditions: 10 μM EP009
Experimental: as §1

Chain of PLK3 (Q9H4B4 whole entry): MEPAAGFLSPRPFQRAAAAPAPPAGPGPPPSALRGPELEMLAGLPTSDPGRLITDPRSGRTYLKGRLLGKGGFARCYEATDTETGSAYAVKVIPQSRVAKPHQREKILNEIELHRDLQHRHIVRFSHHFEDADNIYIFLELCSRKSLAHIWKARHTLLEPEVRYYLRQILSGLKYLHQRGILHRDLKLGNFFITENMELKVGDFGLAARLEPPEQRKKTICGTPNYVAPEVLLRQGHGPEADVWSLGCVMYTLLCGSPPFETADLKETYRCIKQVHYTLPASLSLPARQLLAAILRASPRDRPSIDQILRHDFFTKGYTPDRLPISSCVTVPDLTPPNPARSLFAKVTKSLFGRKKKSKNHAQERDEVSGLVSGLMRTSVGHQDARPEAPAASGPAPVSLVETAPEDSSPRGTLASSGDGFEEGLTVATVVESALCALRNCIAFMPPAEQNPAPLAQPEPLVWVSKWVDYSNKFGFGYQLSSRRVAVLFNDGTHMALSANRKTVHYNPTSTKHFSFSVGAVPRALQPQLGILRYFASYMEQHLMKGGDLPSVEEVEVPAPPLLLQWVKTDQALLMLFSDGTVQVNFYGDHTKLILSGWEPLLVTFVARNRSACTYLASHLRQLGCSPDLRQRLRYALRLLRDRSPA
Chain of FAK (Q05397 whole entry): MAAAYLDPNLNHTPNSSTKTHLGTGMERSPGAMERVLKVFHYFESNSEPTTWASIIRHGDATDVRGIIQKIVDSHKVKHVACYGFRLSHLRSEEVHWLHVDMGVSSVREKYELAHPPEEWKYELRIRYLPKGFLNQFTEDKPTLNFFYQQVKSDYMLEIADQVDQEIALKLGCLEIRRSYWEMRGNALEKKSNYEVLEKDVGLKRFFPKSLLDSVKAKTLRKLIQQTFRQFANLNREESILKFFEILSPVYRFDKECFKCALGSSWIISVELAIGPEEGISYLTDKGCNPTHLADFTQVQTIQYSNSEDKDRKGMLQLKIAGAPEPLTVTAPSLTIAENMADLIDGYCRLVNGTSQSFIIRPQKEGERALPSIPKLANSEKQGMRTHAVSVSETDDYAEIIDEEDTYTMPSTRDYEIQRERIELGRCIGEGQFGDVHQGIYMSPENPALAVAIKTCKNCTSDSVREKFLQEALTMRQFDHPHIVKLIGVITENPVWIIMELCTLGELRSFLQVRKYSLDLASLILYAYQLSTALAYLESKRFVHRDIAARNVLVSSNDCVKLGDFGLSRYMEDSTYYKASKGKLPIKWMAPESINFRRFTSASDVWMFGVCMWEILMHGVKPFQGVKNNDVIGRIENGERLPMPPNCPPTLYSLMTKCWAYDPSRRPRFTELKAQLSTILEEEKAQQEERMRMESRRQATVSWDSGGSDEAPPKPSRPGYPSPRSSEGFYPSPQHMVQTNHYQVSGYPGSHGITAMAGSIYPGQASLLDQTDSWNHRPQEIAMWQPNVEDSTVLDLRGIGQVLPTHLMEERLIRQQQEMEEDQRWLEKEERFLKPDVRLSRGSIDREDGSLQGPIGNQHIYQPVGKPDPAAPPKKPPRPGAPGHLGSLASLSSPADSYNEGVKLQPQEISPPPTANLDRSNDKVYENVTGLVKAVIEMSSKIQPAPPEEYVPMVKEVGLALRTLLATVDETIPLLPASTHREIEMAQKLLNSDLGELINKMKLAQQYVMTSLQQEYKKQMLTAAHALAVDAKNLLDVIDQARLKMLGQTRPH
Chain of MET (P08581 25-1390): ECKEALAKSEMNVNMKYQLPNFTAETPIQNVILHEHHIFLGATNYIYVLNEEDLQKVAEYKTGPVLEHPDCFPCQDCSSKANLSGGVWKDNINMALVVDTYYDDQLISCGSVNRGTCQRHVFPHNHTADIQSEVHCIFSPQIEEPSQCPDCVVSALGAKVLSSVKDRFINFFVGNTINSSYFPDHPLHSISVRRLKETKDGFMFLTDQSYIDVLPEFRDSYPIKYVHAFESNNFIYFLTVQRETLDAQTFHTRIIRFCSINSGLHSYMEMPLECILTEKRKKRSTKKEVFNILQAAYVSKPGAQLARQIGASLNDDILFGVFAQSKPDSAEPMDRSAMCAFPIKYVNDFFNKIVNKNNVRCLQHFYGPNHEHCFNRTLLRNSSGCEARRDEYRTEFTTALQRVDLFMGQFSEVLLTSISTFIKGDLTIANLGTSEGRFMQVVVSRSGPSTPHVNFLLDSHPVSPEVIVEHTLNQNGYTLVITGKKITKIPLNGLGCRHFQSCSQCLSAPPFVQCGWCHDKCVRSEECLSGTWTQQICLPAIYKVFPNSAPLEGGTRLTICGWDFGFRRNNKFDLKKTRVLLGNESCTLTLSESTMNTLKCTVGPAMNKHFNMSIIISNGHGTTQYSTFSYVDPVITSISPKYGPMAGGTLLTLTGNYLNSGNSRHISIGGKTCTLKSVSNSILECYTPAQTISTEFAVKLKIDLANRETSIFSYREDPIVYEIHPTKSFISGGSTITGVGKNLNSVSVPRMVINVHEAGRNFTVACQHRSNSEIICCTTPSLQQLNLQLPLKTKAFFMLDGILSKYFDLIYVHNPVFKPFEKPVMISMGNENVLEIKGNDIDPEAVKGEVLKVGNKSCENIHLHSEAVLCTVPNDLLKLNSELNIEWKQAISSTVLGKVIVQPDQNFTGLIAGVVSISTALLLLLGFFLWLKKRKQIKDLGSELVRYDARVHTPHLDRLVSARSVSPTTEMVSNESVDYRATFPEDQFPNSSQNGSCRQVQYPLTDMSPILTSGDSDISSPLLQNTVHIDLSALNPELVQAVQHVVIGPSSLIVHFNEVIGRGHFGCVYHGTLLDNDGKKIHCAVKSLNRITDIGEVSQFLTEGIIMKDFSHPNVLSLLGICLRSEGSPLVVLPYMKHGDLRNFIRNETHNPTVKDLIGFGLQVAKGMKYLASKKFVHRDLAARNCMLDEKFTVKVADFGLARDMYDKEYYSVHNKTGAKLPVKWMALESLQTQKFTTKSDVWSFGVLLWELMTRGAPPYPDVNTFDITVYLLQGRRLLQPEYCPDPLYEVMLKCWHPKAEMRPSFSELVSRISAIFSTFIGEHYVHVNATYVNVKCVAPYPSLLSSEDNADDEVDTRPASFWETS

## C=C1CCCCCCCCCC(CO)C1=O (stereo not drawn) [EP009, 2-(Hydroxymethyl)-12-methylenecyclododecanone]
Panel of protein kinases
  inhibition against the kinases tested: < 50%
CD30
  effect on CD30 surface expression: dose-dependent CD30 down-regulation
[1]
  Kinase Activity (% of Control): 100 % of Control
FAK
  Kinase Activity (% of Control): 69 % of Control
MET
  Kinase Activity (% of Control): 89 % of Control
PLK3
  Kinase Activity (% of Control): 92 % of Control
